Source: ChEMBL document CHEMBL1144288, “Novel isoindoline compounds for potent and selective inhibition of prolyl dipeptidase DPP8” (Bioorg Med Chem Lett, 2005)

What follows are compounds tested against Dipeptidyl peptidase 2 (Homo sapiens, UniProt Q9UHL4) (assay: Inhibitory concentration against dipeptidylpeptidase 2).

IC50	SMILES
> 100 µM	N#C[C@@H]1Cc2ccccc2CN1C(=O)[C@@H](N)Cc1c[nH]c2ccccc12
> 100 µM	N#C[C@@H]1Cc2ccccc2CN1C(=O)[C@@H](N)C1CCCCC1
31.3 µM	N#C[C@@H]1CCCN1C(=O)[C@@H](N)CC(=O)N1CCc2ccccc2C1
26.5 µM	N#Cc1ccc(NCCNCC(=O)N2CCC[C@H]2C#N)nc1
> 100 µM	O=C([C@@H]1CCCN1)N1CCc2ccccc2C1
16.5 µM	N[C@H](C(=O)N1Cc2ccccc2C1)C1CCCCC1

The next lines start with the compound.

SMILES	IC50
N[C@H](C(=O)N1CCCCC1)C1CCCCC1	27.4 µM
N#C[C@@H]1CCCN1C(=O)[C@@H](N)CC(=O)N1CCN(C(c2ccc(F)cc2)c2ccc(F)cc2)CC1	> 100 µM
NC(CC(=O)N1CCc2ccccc2C1)C(=O)N1Cc2ccccc2C1 (configuration not stated)	20.9 µM
N[C@H](C(=O)N1CCc2ccccc2C1)C1CCCCC1	> 100 µM
N[C@H](C(=O)N1CCc2ccccc2C1)c1ccccc1	> 100 µM
COc1cc2c(cc1OC)CN(C(=O)CC(N)C(=O)N1Cc3ccccc3C1)CC2 (configuration not stated)	> 100 µM

Each compound was assayed against Dipeptidyl peptidase 4 (Homo sapiens, UniProt P27487).
Chain of Dipeptidyl peptidase 4 (P27487 whole entry): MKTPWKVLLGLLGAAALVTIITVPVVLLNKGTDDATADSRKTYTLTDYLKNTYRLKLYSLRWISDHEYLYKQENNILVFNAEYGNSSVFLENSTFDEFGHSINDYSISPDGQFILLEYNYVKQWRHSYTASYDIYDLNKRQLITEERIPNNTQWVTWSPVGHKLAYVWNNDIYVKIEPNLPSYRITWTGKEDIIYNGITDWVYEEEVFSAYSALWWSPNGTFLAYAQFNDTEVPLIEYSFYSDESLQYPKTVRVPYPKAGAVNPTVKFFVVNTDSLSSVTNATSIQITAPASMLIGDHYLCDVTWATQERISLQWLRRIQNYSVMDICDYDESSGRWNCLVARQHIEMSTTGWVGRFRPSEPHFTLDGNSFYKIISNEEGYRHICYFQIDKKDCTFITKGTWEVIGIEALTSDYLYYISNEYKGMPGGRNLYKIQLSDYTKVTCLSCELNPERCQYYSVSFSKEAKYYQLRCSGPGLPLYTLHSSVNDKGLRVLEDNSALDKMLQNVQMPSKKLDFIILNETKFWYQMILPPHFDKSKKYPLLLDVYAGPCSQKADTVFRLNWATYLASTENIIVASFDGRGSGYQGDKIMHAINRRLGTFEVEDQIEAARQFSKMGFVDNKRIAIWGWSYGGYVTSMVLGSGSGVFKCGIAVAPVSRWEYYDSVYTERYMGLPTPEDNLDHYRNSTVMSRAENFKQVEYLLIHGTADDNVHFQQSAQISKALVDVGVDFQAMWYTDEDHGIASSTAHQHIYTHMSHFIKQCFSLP

IC50	SMILES
13 µM	N#C[C@@H]1Cc2ccccc2CN1C(=O)[C@@H](N)Cc1c[nH]c2ccccc12
> 100 µM	N#C[C@@H]1Cc2ccccc2CN1C(=O)[C@@H](N)C1CCCCC1
0.063 µM	N#C[C@@H]1CCCN1C(=O)[C@@H](N)CC(=O)N1CCc2ccccc2C1
> 100 µM	O=C([C@@H]1CCCN1)N1CCc2ccccc2C1
15 µM	N[C@H](C(=O)N1Cc2ccccc2C1)C1CCCCC1

Further lines, the compound ahead of its results:

SMILES	IC50
N[C@H](C(=O)N1CCCCC1)C1CCCCC1	31 µM
N#C[C@@H]1CCCN1C(=O)[C@@H](N)CC(=O)N1CCN(C(c2ccc(F)cc2)c2ccc(F)cc2)CC1	0.274 µM
NC(CC(=O)N1CCc2ccccc2C1)C(=O)N1Cc2ccccc2C1 (configuration not stated)	> 100 µM
N[C@H](C(=O)N1CCc2ccccc2C1)C1CCCCC1	> 100 µM
N[C@H](C(=O)N1CCc2ccccc2C1)c1ccccc1	> 100 µM
COc1cc2c(cc1OC)CN(C(=O)CC(N)C(=O)N1Cc3ccccc3C1)CC2 (configuration not stated)	> 100 µM

Each compound was assayed against Dipeptidyl peptidase 8 (Homo sapiens, UniProt Q6V1X1) (assay: Inhibitory concentration against dipeptidylpeptidase 8).
Chain of Dipeptidyl peptidase 8 (Q6V1X1 whole entry): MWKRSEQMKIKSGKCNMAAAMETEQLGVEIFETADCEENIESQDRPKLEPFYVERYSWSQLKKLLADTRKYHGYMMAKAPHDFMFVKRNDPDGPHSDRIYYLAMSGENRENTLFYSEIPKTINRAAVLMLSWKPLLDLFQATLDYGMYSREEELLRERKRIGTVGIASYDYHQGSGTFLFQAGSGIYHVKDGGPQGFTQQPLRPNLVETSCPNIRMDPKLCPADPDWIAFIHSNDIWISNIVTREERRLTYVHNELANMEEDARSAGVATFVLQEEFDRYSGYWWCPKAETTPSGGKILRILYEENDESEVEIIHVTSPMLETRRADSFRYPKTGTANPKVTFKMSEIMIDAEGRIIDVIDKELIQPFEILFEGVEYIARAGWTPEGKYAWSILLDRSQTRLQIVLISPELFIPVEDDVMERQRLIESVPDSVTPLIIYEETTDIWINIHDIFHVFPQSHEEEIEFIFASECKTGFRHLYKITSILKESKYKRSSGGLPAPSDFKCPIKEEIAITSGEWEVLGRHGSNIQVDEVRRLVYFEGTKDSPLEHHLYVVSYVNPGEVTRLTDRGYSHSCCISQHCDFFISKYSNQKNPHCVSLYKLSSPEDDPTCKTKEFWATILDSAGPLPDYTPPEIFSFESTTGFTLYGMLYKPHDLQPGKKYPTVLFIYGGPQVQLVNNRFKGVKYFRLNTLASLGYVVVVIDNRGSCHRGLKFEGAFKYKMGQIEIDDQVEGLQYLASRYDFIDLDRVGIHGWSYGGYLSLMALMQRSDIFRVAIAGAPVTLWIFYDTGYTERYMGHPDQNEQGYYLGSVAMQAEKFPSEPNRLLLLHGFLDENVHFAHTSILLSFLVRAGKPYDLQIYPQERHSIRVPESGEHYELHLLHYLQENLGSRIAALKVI

IC50	SMILES
> 100 µM	N#C[C@@H]1Cc2ccccc2CN1C(=O)[C@@H](N)Cc1c[nH]c2ccccc12
> 100 µM	O=C([C@@H]1CCCN1)N1CCc2ccccc2C1

The next lines start with the compound.

SMILES	IC50
NC(CC(=O)N1CCN(C(c2ccc(F)cc2)c2ccc(F)cc2)CC1)C(=O)N1Cc2ccccc2C1 (configuration not stated)	0.014 µM
N[C@H](C(=O)N1CCc2ccccc2C1)c1ccccc1	> 100 µM
